# Read-outs that look alike come from different tables or passages of the source.
# Tests used:
# [1] = test system: reuptake of norepinephrine, serotonin, and dopamine; conditions: cited from earlier work
# [2] = molecular target: dopamine (DA) transporter (Rattus norvegicus, UniProt P23977); experiment: Inhibition of [3H]DA uptake in rat striatum synaptosomes; format: biochemical
# Protocol: (§1) The effects of 1-aryl-3-azabicyclo[3.1.0]hexanes of the invention for inhibiting transport of norepinephrine (NE) and/or dopamine (DA) and/or serotonin (5-HT) were evaluated using preparations of synaptosomes from different regions of the rat brain according to previously-reported techniques (Perovic and Muller, 1995, Janowsky et al., 1986). The subject assay methods are art-accepted models for generally assessing and predicting activities of drugs that modulate biogenic amine transport in mammals.
# (§2) Whole brains were obtained from normal rats, and synaptosomal preparations were made from either whole brain (5-HT), striatum (DA) or hypothalamus (NE) by gentle disruption in 10 volumes (w/v) of 0.32 M sucrose (0-4° C.) using a Teflon-glass homogenizer. The homogenate was then centrifuged at 1000×g for 10 min. The supernatant was retained and centrifuged at 23000 g for 20 min. The resulting pellet was gently resuspended in 200 volumes of 0.32 M sucrose (0-4° C.) using a teflon-glass homogenizer. Aliquots (250 μL) of this preparation were added to tubes, along with 0.2 μCi/mL of [^3H]5-HT, [^3H]DA, or [^3H]NE, 200 μL of selected 1-aryl-3-azabicyclo[3.1.0]hexane test compounds (to yield final concentrations of 100 nM, 300 nM, 1 μM, 3 μM, 10 μM, 30 μM or 100 μM) and 1 mL of Krebs-Ringer bicarbonate buffer (pH 7.4). The mixtures were incubated for either 15 (DA and 5-HT uptake) or 20 (NE uptake) minutes at 37° C. At the end of this period, the assay was terminated by rapid filtration over Whatman GF/C glass fiber filters. The filters were rinsed 3 times with 4 ml of Krebs-Ringer bicarbonate buffer (0-4° C.), and the radioactivity retained on the filters was measured by liquid scintillation spectrometry. The results of these assays are shown in Table 3, below, which indicates, for each of the exemplary, aza-substituted compounds, the structure of the substituent, and levels of observed uptake inhibition for each of the indicated neurotransmitters. Also provided in the table is a multi-target “inhibition profile”, expressing a ratio of observed inhibition for each of the aza-substituted bicifadine across a panel of the three indicated neurotransmitters.
# [3] = molecular target: serotonin (5-HT) transporter (Rattus norvegicus, UniProt P31652); experiment: Inhibition of [3H]5-HT uptake in rat whole brain synaptosomes; format: biochemical
# Chain of serotonin (5-HT) transporter (P31652 whole entry): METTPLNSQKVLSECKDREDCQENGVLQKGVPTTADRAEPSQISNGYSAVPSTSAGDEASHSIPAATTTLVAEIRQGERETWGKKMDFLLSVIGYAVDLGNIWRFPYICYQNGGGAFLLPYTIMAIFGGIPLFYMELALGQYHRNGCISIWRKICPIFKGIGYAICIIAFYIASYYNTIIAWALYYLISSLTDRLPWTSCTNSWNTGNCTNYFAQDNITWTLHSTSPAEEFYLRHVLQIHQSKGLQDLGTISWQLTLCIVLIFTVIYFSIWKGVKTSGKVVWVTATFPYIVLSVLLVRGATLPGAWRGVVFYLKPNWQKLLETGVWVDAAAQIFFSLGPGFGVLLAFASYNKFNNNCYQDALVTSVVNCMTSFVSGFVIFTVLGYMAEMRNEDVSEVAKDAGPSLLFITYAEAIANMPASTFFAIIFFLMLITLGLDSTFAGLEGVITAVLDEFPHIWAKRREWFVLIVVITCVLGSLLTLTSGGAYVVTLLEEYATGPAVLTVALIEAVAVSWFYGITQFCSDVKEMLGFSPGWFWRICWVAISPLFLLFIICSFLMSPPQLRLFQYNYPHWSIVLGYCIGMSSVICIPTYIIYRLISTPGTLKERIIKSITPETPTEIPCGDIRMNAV
# Protocol: as §1, §2
# [4] = molecular target: norepinephrine (NE) transporter (Rattus norvegicus, UniProt Q9WTR4); experiment: Inhibition of [3H]NE uptake in rat hypothalamus synaptosomes; format: biochemical
# Chain of norepinephrine (NE) transporter (Q9WTR4 1-597): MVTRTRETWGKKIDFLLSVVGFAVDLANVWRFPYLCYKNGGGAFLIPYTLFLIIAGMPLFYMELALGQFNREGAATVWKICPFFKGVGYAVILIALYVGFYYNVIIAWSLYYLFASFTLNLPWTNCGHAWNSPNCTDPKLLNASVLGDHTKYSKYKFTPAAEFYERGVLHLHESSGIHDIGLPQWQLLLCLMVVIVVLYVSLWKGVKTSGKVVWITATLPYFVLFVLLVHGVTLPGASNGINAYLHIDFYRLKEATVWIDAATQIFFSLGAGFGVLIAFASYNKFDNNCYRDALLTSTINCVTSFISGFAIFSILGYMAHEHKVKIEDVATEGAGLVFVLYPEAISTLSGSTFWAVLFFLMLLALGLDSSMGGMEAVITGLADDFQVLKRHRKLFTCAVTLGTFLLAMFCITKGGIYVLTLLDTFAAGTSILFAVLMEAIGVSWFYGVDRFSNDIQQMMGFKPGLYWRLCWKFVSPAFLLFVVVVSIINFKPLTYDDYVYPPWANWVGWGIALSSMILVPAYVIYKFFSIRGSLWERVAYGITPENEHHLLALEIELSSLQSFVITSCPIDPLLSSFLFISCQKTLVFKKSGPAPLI
# Protocol: as §1, §2
# [5] = orally administered single dose; 150 mg bicifadine, 650 mg aspirin; cited from earlier work
# [6] = dental surgery patients; cited from earlier work
# [7] = rat striatum synaptosomes, [3H]DA, 15 min, 37° C., read-out: Inhibition of DA Uptake (IC50)
# [8] = rat whole brain synaptosomes, [3H]5-HT, 15 min, 37° C., read-out: Inhibition of 5-HT Uptake (IC50)
# [9] = rat hypothalamus synaptosomes, [3H]NE, 20 min, 37° C., read-out: Inhibition of NE Uptake (IC50)
# Chain of dopamine (DA) transporter (P23977 whole entry): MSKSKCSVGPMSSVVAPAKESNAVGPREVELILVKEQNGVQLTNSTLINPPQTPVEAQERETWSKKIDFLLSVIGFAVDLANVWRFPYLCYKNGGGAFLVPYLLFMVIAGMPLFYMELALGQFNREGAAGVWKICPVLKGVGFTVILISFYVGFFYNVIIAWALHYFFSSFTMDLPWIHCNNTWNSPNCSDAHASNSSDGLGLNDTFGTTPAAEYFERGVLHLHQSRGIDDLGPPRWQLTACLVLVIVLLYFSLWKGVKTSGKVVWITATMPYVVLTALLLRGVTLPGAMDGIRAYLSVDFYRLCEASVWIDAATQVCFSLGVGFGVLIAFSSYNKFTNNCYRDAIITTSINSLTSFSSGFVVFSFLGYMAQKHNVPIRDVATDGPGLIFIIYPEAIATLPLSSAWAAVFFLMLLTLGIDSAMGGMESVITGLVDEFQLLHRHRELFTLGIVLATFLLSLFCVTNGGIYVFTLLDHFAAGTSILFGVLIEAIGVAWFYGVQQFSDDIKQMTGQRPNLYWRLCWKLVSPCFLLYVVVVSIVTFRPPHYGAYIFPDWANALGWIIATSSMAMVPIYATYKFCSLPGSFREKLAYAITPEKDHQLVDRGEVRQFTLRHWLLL
SMILES,"IC50 [2, 7] [nM]","IC50 [3, 8] [nM]","IC50 [4, 9] [nM]",also measured
"Cl.Clc1ccc(C23CNCC2C3)cc1Cl (stereo not shown) [1-(3,4-dichlorophenyl)-3-azabicyclo[3.1.0]hexane hydrochloride]",–,–,–,"inhibition of reuptake of norepinephrine, serotonin, and dopamine [1]: inhibit reuptake of all three of these biogenic amines"
"Cc1ccc(C23CC2CN(CC(F)(F)F)C3)cc1 (stereo not shown) [C2H2F3,4-CH3]",48000,25000,–,–
"CCN1CC2CC2(c2ccc(C)cc2)C1 (stereo not shown) [C2H5,4-CH3, 3-Ethyl-1-p-tolyl-3-aza-bicyclo[3.1.0]hexane]",–,–,–,IC50 [2]: < 100 nM; IC50 [4]: < 100 nM; IC50 [3]: 240 nM
"COCCN1CC2CC2(c2ccc(C)cc2)C1 (stereo not shown) [C3H7O, 4-CH3, 3-(2-Methoxyethyl)-1-p-tolyl-3-aza-bicyclo[3.1.0]hexane]",10000,8000,6500,–
"CN1CC2CC2(c2cccc(Cl)c2)C1 (stereo not shown) [CH3,3-Cl, 1-(3-Chlorophenyl)-3-methyl-3-aza-bicyclo[3.1.0]hexane]",–,–,–,IC50 [2]: 1300 nM; IC50 [4]: 83 nM; IC50 [3]: 270 nM
"CN1CC2CC2(c2ccc(C(F)(F)F)cc2)C1 (stereo not shown) [CH3,4-CF3, 3-Methyl-1-(4-trifluoromethylphenyl)-3-aza-bicyclo[3.1.0]hexane]",–,130,2600,–
"CN1CC2CC2(c2ccc(CN)cc2)C1 (stereo not shown) [CH3,4-CH2NH2, (4-(3-Methyl-3-aza-bicyclo[3.1.0]hexan-1-yl)phenyl)methanamine]",8500,7400,–,–
"Cc1ccc(C23CC2CN(C)C3)cc1 (stereo not shown) [CH3,4-CH3, 3-Methyl-1-p-tolyl-3-aza-bicyclo[3.1.0]hexane]",–,–,–,IC50 [2]: 960 nM; IC50 [4]: 150 nM; IC50 [3]: 190 nM
"CN1CC2CC2(c2ccc(F)cc2)C1 (stereo not shown) [CH3,4-F, 1-(4-Fluorophenyl)-3-methyl-3-aza-bicyclo[3.1.0]hexane]",–,–,–,IC50 [2]: 3800 nM; IC50 [4]: 170 nM; IC50 [3]: 3400 nM
CC(=O)Oc1ccccc1C(=O)O [aspirin],–,–,–,analgesic activity compared to placebo [5]: Significant analgesic activity
"Cc1ccc(C23CNCC2C3)cc1.Cl (stereo not shown) [bicifadine, 1-p-Tolyl-3-aza-bicyclo[3.1.0]hexane hydrochloride, reference compound]",1300,130,130,"analgesia relative to codeine and tramadol [6]: analgesia comparable to the narcotic, codeine and the narcotic-like agent tramadol; analgesic activity compared to placebo [5]: Significant analgesic activity"
"Cc1ccc(C23CC2CN(C(C)C)C3)cc1 (stereo not shown) [i-C3H7,4-CH3, 3-Isopropyl-1-p-tolyl-3-aza-bicyclo[3.1.0]hexane]",610,170,230,–
"CCCN1CC2CC2(c2ccc(C)cc2)C1 (stereo not shown) [n-C3H7,4-CH3, 3-Propyl-1-p-tolyl-3-aza-bicyclo[3.1.0]hexane]",2700,760,1400,–
"Cc1ccc(C23CC2CN(C(C)(C)C)C3)cc1 (stereo not shown) [t-C4H9,4-CH3]",7300,7600,2700,–

# Reference: patent US20060223875A1, “Methods and compositions for production, formulation and use of 1-aryl-3-azabicyclo[3.1.0]hexanes” (priority 2005, published 2006)
